The record followed here is PubChem BioAssay (NCI).

Among the test systems are BT-549 breast; U251 CNS; SK-OV-3 ovarian; DU-145 prostate; TK-10 renal; T-47D breast; SK-MEL-28 melanoma; M14 melanoma; MALME-3M melanoma; NCI-H522 lung.
Common to all, as to test: growth of human tumour cells (NCI), 48 h

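Assay format: 96-well plates, 48-hour exposure. The concentration for 50% growth inhibition is given as GI50. At the TGI there is no net growth.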

Regarding `COC(=O)Nc1nc2ccc(NC(=O)c3cccs3)cc2[nH]1`, the TGI was above 100 µM with BT-549 breast; above 100 µM in the assay on U251 CNS; above 100 µM in the assay on SK-OV-3 ovarian; above 100 µM in the assay on DU-145 prostate; above 100 µM in the assay with TK-10 renal; 88.1 µM with T-47D breast. Also, the TGI in the assay on SK-MEL-28 melanoma was above 100 µM; in the assay with M14 melanoma it was above 100 µM; in the assay on MALME-3M melanoma, 99.5 µM.
As to `O=C1OC2CC=CC1C2` (stereo not given), the TGI in the assay on NCI-H522 lung, in the assay with U251 CNS, in the assay with SK-OV-3 ovarian, in the assay with SK-MEL-28 melanoma and in the assay on MALME-3M melanoma was above 100 µM throughout.
In the case of `C=C1C(=O)OC2CC1CCC1(C)OC1CCC(C)=CCCC2(C)O` (stereo not given), the TGI with NCI-H522 lung was 3.69 µM; in the assay with U251 CNS, 29.2 µM; in the assay with SK-OV-3 ovarian, 36.7 µM; with SK-MEL-28 melanoma, 10.7 µM; in the assay on MALME-3M melanoma it was 12.2 µM.
Regarding `c1ccc(C[N+]23CN4CN(CN(C4)C2)C3)cc1`, the TGI was above 100 µM in the assay on BT-549 breast; above 100 µM in the assay on NCI-H522 lung; 35.6 µM in the assay on U251 CNS; above 100 µM in the assay on SK-OV-3 ovarian; 91.8 µM with DU-145 prostate; above 100 µM with TK-10 renal. Moreover, the TGI in the assay with T-47D breast was 87.4 µM; in the assay on SK-MEL-28 melanoma, 60.9 µM; in the assay with M14 melanoma, 39.8 µM; with MALME-3M melanoma, above 100 µM.
Turning to `O=C1CCCC2C3CC(CN12)C1CCCCN1C3` (stereo not given), the TGI in the assay on BT-549 breast, with NCI-H522 lung, with U251 CNS, in the assay with SK-OV-3 ovarian, with DU-145 prostate and in the assay on TK-10 renal was above 100 µM in each case. Besides, the TGI in the assay on T-47D breast, with SK-MEL-28 melanoma, in the assay on M14 melanoma and in the assay on MALME-3M melanoma was above 100 µM throughout.
Turning to `CN1CC(CNC(=O)OCc2ccccc2)CC2c3cccc4c3c(cn4C)CC21` (stereo not given), the GI50 was 2.07 µM with BT-549 breast; 1.73 µM with NCI-H522 lung; 1.46 µM in the assay on U251 CNS; 3.88 µM with DU-145 prostate; 1.92 µM in the assay on TK-10 renal; 2.26 µM in the assay with T-47D breast. Further, the GI50 in the assay with SK-MEL-28 melanoma was 1.62 µM; in the assay on M14 melanoma, 2.14 µM; with MALME-3M melanoma it was 1.57 µM. The TGI was 4.62 µM in the assay on BT-549 breast; 3.33 µM in the assay with NCI-H522 lung; 2.91 µM in the assay with U251 CNS; 14.4 µM in the assay with DU-145 prostate; 3.67 µM in the assay with TK-10 renal; 4.67 µM with T-47D breast. The figures for the TGI in the assay on SK-MEL-28 melanoma, in the assay with M14 melanoma and in the assay with MALME-3M melanoma were 3.03 µM, 4.68 µM and 3.14 µM, respectively.
`O=C1OCc2cc3cc4c(cc3c(-c3ccc5c(c3)OCO5)c21)OCO4` (tested in a mixture with another compound): the TGI is above 100 µM in the assay with BT-549 breast; 43.7 µM in the assay on U251 CNS; 48.1 µM in the assay on SK-OV-3 ovarian; 55.2 µM in the assay with DU-145 prostate; 50.8 µM in the assay with TK-10 renal; above 100 µM in the assay with T-47D breast. Further, the TGI was above 100 µM with SK-MEL-28 melanoma, 32 µM in the assay with M14 melanoma and above 100 µM with MALME-3M melanoma.
Take `O=C(COc1ccc(Cl)c(Cl)c1)N(Cc1ccccc1)Cc1ccc[n+](Cc2ccc(Cl)cc2S(=O)(=O)F)c1`: the TGI in the assay on NCI-H522 lung, in the assay with U251 CNS, in the assay on SK-OV-3 ovarian, with DU-145 prostate, with TK-10 renal and with T-47D breast was above 100 µM in each case. Besides, the values for the TGI in the assay on SK-MEL-28 melanoma, in the assay on M14 melanoma and with MALME-3M melanoma were above 100 µM, above 100 µM and 54.2 µM, respectively.
Consider `COc1ccc(NC(=S)N/N=C(\C)c2nc3ncccc3[nH]2)cc1`, for which the TGI in the assay with BT-549 breast is 42.3 µM; in the assay on NCI-H522 lung, 37.5 µM; in the assay with U251 CNS it was above 100 µM; in the assay with SK-OV-3 ovarian it was above 100 µM; in the assay with DU-145 prostate, above 100 µM; in the assay with TK-10 renal, 21.1 µM. Also, the TGI in the assay with T-47D breast was 92.4 µM; with SK-MEL-28 melanoma, above 100 µM; with MALME-3M melanoma, above 100 µM.
Take `Cl/C(=C\C=Nc1ccc(I)cc1)c1ccc2ccccc2c1`: the TGI in the assay on BT-549 breast is 47 µM; with NCI-H522 lung, above 100 µM; with U251 CNS, 35 µM; in the assay on SK-OV-3 ovarian, 74.4 µM; in the assay with DU-145 prostate it was above 61.4 µM; in the assay on TK-10 renal, 49.6 µM. For the same compound, the TGI was found to be 61.9 µM in the assay on T-47D breast, 46.2 µM with SK-MEL-28 melanoma, 31.5 µM in the assay with M14 melanoma and 42 µM in the assay on MALME-3M melanoma.
Take `CC(=O)NNC(=O)C1CCCCN1` (stereo not given): the TGI with BT-549 breast, in the assay with NCI-H522 lung, in the assay on U251 CNS, in the assay on SK-OV-3 ovarian, in the assay with DU-145 prostate and in the assay with TK-10 renal was above 100 µM each time. Further, the TGI in the assay on SK-MEL-28 melanoma, in the assay with M14 melanoma and in the assay with MALME-3M melanoma was above 100 µM throughout.
For the compound `CCCC(=O)O.CCCC(=O)O.CCCC(=O)O.CCCC(=O)O.[Rh].[Rh]`, the GI50 was 0.0314 µM in the assay with BT-549 breast; 0.278 µM in the assay with SK-OV-3 ovarian; 0.181 µM with DU-145 prostate; 0.0312 µM in the assay with T-47D breast; 0.0569 µM in the assay with M14 melanoma; 0.0309 µM with MALME-3M melanoma. Also, the TGI is 0.101 µM in the assay with BT-549 breast; 0.829 µM in the assay with SK-OV-3 ovarian; 0.491 µM in the assay with DU-145 prostate; 0.0985 µM with T-47D breast; 0.195 µM in the assay with M14 melanoma; 0.102 µM in the assay with MALME-3M melanoma.
As for `Cc1cc(C)nc(SCCc2cccc[n+]2C)n1`, the TGI with BT-549 breast, with NCI-H522 lung, with U251 CNS, in the assay with SK-OV-3 ovarian, in the assay with DU-145 prostate and with TK-10 renal was above 100 µM throughout. The TGI with T-47D breast, in the assay with SK-MEL-28 melanoma, in the assay on M14 melanoma and in the assay on MALME-3M melanoma was above 100 µM each time.
Consider `Br/C(=N\Nc1nn[nH]n1)c1ccncc1`, for which the TGI in the assay on BT-549 breast, in the assay with NCI-H522 lung, in the assay with U251 CNS, in the assay on SK-OV-3 ovarian, in the assay with DU-145 prostate and in the assay on TK-10 renal was above 100 µM throughout. Also, the TGI with T-47D breast, with SK-MEL-28 melanoma, with M14 melanoma and in the assay with MALME-3M melanoma was above 100 µM in each case.
In the case of `CC[C@]12C=CCN3CC[C@@]4(c5cc(Br)c(OC)cc5N(C)[C@H]4[C@@](O)(C(=O)N[C@@H](Cc4ccc(O)cc4)C(=O)OC)[C@@H]1O)[C@@H]32`, the TGI is 41.4 µM in the assay on BT-549 breast; 54.4 µM in the assay with NCI-H522 lung; 27.8 µM with U251 CNS; above 100 µM with SK-OV-3 ovarian; above 100 µM in the assay with DU-145 prostate; 79.5 µM with TK-10 renal. Also, the TGI in the assay on T-47D breast was above 100 µM; in the assay on SK-MEL-28 melanoma it was above 100 µM; in the assay with M14 melanoma, 95.1 µM; in the assay on MALME-3M melanoma, 29.1 µM.
Take `COc1c(OC/C=C(\C)CCC=C(C)C)ccc2ccc(=O)oc12`: the TGI with BT-549 breast, in the assay with NCI-H522 lung, in the assay with U251 CNS, with SK-OV-3 ovarian, with DU-145 prostate and in the assay with TK-10 renal was above 100 µM each time. In addition, the TGI with T-47D breast, in the assay on SK-MEL-28 melanoma and with M14 melanoma was above 100 µM in each case.
`CC(C)(C)OC(=O)NC1CCC(C(C)(C)C)CC1` (stereo not given): the TGI in the assay with NCI-H522 lung is above 100 µM; in the assay on U251 CNS, above 100 µM; in the assay on SK-OV-3 ovarian, above 100 µM; with SK-MEL-28 melanoma, above 100 µM; with MALME-3M melanoma it was above 93.8 µM.
As for `O=C(Oc1ccc(Cl)cc1[N+](=O)[O-])c1ccccc1`, the TGI in the assay on U251 CNS, in the assay with SK-OV-3 ovarian, in the assay on TK-10 renal, in the assay on SK-MEL-28 melanoma, in the assay on M14 melanoma and in the assay with MALME-3M melanoma was above 100 µM each time.
Take `COc1ccc(OC)c(CC(C)N)c1` (stereo not given): the TGI in the assay with NCI-H522 lung, in the assay on U251 CNS, in the assay on SK-OV-3 ovarian, in the assay with TK-10 renal, in the assay with SK-MEL-28 melanoma and in the assay on M14 melanoma was above 100 µM each time. This compound also showed a TGI with MALME-3M melanoma above 100 µM.
Take `C=CCSSCC=C`: the TGI in the assay with BT-549 breast is above 81.5 µM; with NCI-H522 lung, above 100 µM; with U251 CNS it was above 100 µM; in the assay on SK-OV-3 ovarian, above 100 µM; with DU-145 prostate it was above 100 µM; with TK-10 renal it was above 100 µM. Further, the TGI with T-47D breast, with SK-MEL-28 melanoma, in the assay with M14 melanoma and in the assay on MALME-3M melanoma was above 100 µM each time.
Consider `Cn1c2c3ccc(Cl)cc3nc-2c(Cl)c2ccccc21`, for which the TGI is 50.1 µM in the assay with BT-549 breast; 33.6 µM in the assay with NCI-H522 lung; above 100 µM with U251 CNS; above 100 µM in the assay on SK-OV-3 ovarian; 33.4 µM in the assay on DU-145 prostate; 32.5 µM with TK-10 renal. The TGI with T-47D breast was above 100 µM; in the assay on SK-MEL-28 melanoma, 43.9 µM; with M14 melanoma, 61.3 µM; in the assay on MALME-3M melanoma it was 34 µM.
Take `SC1CCCN(Cc2ccccc2)C1` (stereo not given): the TGI with BT-549 breast, in the assay on NCI-H522 lung, in the assay on U251 CNS, in the assay with SK-OV-3 ovarian, with DU-145 prostate and in the assay on TK-10 renal was above 100 µM in each case. Moreover, the results for the TGI in the assay on T-47D breast, in the assay with SK-MEL-28 melanoma and in the assay with M14 melanoma were 94.1 µM, above 100 µM and 36.9 µM, respectively.
As to `O=C(/C=C/c1ccccc1)N1CCCCC1`, the TGI in the assay on BT-549 breast, with NCI-H522 lung, with U251 CNS, in the assay on SK-OV-3 ovarian, with DU-145 prostate and in the assay on TK-10 renal was above 100 µM each time. Further, the TGI in the assay with T-47D breast, in the assay with SK-MEL-28 melanoma and with M14 melanoma was above 100 µM each time.
